Data as given in ChEMBL document CHEMBL1201862, “PubChem BioAssay data set” (2004).
Activity calls are given as the source filed them.

Tests used:
[1] = growth suppression of PTEN-null colon cells, dose response, cell-based, HCT116 PTEN knockout (AID 1047); format: functional;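 further: HCT116 colon tumor cells with PTEN knocked out; cells exposed to compound for 60 hours before readout; potency for loss of cell viability measured by luminescence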
[2] = growth suppression of beta-catenin-knockout colon cells, dose response, cell-based, HCT116, human colon tumor (AID 1045); format: functional;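 further: HCT116 colon tumor cells with beta catenin knocked out; cells exposed to compound for 60 hours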
[3] = inhibitors of intracellular T. cruzi replication, confirmation, NIH3T3 host cells, beta-gal luminescence (AID 2044); format: functional, cell-based;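 further: intracellular parasites grown in NIH/3T3 mouse fibroblasts as host cells; luminescent beta-galactosidase reporter signal from transgenic T. cruzi replicating inside host cells; inhibitors lower the luminescence signal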
[4] = biological target: T1, Zinc finger protein mex-5 (Caenorhabditis elegans, UniProt Q9XUB2); experiment: MEX-5/TCR-2 RNA interaction inhibitors, dose response, biochemical, C. elegans, fluorescence polarization (AID 1960)
T1 sequence (Q9XUB2 whole entry): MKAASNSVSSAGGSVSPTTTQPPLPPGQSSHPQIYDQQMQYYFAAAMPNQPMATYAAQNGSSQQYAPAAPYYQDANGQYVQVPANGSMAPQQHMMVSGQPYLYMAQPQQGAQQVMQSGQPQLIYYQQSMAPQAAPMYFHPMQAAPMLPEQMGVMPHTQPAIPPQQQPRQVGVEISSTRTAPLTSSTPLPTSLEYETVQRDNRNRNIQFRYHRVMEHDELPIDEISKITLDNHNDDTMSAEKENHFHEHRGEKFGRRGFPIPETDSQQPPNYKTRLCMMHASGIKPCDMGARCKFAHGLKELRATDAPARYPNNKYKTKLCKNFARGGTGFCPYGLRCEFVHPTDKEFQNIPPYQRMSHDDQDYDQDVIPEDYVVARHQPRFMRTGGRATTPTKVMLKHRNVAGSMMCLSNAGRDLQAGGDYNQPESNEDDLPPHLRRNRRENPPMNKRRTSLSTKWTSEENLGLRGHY

[5] = biological target: T2, RNA-binding protein pos-1 (Caenorhabditis elegans, UniProt G5EF15); experiment: inhibitors of POS-1/mex-3 RNA binding, dose response, biochemical, fluorescence polarization (AID 1964);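 further: purified POS-1 fused to maltose binding protein made in E. coli; potency of compounds blocking POS-1 binding to fluorescent RNA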
T2 sequence (G5EF15 whole entry): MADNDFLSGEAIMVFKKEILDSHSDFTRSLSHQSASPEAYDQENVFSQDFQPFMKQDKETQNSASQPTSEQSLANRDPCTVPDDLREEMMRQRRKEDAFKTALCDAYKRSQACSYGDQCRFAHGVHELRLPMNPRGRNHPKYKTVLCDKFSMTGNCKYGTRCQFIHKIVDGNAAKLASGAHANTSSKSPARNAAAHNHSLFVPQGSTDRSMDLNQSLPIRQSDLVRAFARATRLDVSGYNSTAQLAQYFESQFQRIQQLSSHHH

[6] = cytotoxicity toward NIH3T3 fibroblasts, dose response, counter-screen, cell-based, ATP luminescence, mouse fibroblasts (AID 2010); format: functional;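 further: cells exposed to compound for about 90 hours before reading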
Protein RecA = biological target: T3, Protein RecA (Mycobacterium tuberculosis, UniProt P9WHJ3); experiment: Fluorescence Cell-Free Homogeneous Dose Retest to Identify Inhibitors of RecA-Intein Splicing Activity. [Related pubchem assays (depositor defined):AID2097, AID2223, AID489010, AID492950]; format: functional
T3 sequence (P9WHJ3 whole entry): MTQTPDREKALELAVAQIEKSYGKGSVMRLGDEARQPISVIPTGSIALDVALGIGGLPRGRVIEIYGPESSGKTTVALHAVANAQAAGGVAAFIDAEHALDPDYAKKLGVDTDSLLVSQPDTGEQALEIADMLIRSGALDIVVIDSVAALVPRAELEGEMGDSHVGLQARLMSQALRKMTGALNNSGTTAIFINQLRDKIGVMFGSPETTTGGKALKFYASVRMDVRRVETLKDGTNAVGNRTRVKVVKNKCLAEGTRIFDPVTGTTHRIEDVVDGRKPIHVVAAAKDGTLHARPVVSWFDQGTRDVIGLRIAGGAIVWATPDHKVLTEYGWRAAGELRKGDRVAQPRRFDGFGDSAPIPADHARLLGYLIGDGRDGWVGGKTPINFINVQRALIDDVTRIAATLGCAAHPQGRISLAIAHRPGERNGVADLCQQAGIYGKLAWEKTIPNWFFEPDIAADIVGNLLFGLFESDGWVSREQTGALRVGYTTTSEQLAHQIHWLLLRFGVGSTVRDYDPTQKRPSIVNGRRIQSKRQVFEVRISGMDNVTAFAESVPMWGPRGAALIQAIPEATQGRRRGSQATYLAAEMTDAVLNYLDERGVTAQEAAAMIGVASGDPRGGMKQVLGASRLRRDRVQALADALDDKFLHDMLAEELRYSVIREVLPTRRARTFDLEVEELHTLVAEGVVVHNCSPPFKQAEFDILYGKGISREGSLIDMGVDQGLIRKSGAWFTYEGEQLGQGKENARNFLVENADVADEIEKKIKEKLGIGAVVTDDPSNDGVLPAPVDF

[7] = biological target: T4, Replicative DNA helicase DnaB (Mycobacterium tuberculosis, UniProt P9WMR3); experiment: DnaB intein splicing inhibitors, dose response, biochemical, cell-free fluorescence (AID 449749); format: functional
T4 sequence (P9WMR3 whole entry): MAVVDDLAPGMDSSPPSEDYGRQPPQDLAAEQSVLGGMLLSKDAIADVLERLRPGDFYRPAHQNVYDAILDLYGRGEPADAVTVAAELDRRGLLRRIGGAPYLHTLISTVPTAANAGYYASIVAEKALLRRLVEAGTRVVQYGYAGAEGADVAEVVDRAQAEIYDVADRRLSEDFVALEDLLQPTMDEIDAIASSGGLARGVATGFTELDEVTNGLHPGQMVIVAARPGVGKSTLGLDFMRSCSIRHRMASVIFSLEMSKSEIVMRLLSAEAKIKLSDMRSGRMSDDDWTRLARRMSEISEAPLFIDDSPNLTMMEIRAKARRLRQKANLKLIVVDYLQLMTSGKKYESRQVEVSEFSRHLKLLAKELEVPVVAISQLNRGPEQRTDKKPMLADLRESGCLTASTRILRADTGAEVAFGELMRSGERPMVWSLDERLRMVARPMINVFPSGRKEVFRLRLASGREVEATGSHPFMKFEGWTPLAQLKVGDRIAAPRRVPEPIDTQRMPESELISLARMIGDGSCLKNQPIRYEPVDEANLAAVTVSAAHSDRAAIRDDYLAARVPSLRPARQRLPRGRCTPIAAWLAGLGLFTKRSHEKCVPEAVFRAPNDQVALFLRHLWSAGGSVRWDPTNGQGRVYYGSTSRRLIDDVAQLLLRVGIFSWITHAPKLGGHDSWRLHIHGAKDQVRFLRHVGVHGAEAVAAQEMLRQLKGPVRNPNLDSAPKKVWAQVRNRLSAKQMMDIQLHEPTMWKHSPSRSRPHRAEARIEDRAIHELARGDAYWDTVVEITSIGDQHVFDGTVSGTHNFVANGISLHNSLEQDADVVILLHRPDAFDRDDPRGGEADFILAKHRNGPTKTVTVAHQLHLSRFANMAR

[8] = inhibitors of firefly luciferase expression or activity, dose response, H4 neuroglioma cells, luminescence (AID 1990); format: functional, cell-based
[9] = Luminescence Cell-Based Dose Response HTS to Identify Inhibitors of 5'UTR Stem-Loop Driven Prion Protein mRNA Translation in H4 Neuroglioblastoma Cells. [Related pubchem assays: 1827 (Project Summary), 1813 (Primary HTS)]; format: functional
Streptococcus = experiment: Group A Streptococcus viability loss, dose response, counter-screen for streptokinase expression inhibitor project, luminescence, BacTiterGlo (AID 1915); format: functional, organism-based;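 further: potency for reduction of bacterial viability or growth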
INS1 = experiment: beta cell apoptosis inhibitors, cytokine rescue, dose response, luminescence, retest (AID 449756); format: functional, cell-based; settings: Rattus norvegicus;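 further: cell death triggered by IL-1 beta plus TNF-alpha plus IFN-gamma mixture; protective hits raise ATP signal compared with cytokine alone wells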
[10] = inhibitors of SNCA 5'UTR-driven reporter translation, confirmation, H4 neuroglioma cells, luminescence (AID 1988); format: functional, cell-based
[11] = system: Streptococcus sp. 'group A'; experiment: growth inhibition of control SK(-) GAS strain, dose response, counter-screen for streptokinase expression inhibitor project, luminescence, kanamycin, BacTiterGlo, confirmation (AID 1900); format: functional, organism-based
Streptokinase A = biological target: T5, Streptokinase A (Streptococcus pyogenes serotype M1, UniProt P10520); experiment: S. pyogenes streptokinase expression inhibitors, potency, dose response, plasminogen activation absorbance, OD405 (AID 1914); format: functional, Streptococcus pyogenes M1 GAS;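 further: secreted streptokinase activity via plasminogen activation per viability signal from cell pellet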
T5 sequence (P10520 whole entry): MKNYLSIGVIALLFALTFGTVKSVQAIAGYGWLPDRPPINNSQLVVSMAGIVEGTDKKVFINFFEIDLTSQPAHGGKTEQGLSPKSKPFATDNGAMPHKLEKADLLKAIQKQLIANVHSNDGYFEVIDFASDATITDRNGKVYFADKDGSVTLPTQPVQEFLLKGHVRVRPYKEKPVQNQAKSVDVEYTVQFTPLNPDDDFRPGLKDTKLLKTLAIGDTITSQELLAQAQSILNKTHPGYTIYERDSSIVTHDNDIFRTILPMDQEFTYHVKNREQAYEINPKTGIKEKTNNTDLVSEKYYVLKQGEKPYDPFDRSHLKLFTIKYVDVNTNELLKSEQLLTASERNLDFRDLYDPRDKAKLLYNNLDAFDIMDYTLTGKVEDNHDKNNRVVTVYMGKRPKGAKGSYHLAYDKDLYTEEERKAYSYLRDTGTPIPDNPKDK

[12] = biological target: Heat shock protein HSP 90-alpha (Homo sapiens, UniProt P07900); format: functional, organism-based
[13] = Luminescence Cell-Based Dose Retest to Confirm Inhibitors of Cancer Stem Cells. [Related pubchem assays (depositor defined):AID2717, AID2721]; format: functional; settings: Homo sapiens
Fatty acid synthase [14] = biological target: T6, Fatty acid synthase (Homo sapiens, UniProt P49327); experiment: FAS thioesterase domain inhibitors, dose response, biochemical, kinetic fluorescence intensity (AID 624326); format: functional;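 further: rate of fluorescence rise from hydrolysis of a fluorogenic O-methyl fluorescein ester substrate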
Fatty acid synthase [15] = biological target: T6, Fatty acid synthase; experiment: FAS thioesterase domain inhibitors, dose response, biochemical, endpoint fluorescence intensity, uHTS hits (AID 624327); format: functional;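 further: fluorescence from hydrolysis of an O-methyl fluorescein acyl ester substrate by the enzyme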
[16] = HEp-2 cell cytotoxicity, dose response, cytotoxicity control for RSV inhibitor project, HTS (AID 2410); format: functional; settings: human respiratory syncytial virus
Cytochrome P450 2C9 = Cytochrome P450 2C9 (Homo sapiens, UniProt P11712)
[17] = P. falciparum Dd2 growth inhibitors, dose response, SYBR Green, cherry-picked samples (AID 1159567); format: functional, cell-based

T6 sequence (P49327 whole entry, the tested form may be a part): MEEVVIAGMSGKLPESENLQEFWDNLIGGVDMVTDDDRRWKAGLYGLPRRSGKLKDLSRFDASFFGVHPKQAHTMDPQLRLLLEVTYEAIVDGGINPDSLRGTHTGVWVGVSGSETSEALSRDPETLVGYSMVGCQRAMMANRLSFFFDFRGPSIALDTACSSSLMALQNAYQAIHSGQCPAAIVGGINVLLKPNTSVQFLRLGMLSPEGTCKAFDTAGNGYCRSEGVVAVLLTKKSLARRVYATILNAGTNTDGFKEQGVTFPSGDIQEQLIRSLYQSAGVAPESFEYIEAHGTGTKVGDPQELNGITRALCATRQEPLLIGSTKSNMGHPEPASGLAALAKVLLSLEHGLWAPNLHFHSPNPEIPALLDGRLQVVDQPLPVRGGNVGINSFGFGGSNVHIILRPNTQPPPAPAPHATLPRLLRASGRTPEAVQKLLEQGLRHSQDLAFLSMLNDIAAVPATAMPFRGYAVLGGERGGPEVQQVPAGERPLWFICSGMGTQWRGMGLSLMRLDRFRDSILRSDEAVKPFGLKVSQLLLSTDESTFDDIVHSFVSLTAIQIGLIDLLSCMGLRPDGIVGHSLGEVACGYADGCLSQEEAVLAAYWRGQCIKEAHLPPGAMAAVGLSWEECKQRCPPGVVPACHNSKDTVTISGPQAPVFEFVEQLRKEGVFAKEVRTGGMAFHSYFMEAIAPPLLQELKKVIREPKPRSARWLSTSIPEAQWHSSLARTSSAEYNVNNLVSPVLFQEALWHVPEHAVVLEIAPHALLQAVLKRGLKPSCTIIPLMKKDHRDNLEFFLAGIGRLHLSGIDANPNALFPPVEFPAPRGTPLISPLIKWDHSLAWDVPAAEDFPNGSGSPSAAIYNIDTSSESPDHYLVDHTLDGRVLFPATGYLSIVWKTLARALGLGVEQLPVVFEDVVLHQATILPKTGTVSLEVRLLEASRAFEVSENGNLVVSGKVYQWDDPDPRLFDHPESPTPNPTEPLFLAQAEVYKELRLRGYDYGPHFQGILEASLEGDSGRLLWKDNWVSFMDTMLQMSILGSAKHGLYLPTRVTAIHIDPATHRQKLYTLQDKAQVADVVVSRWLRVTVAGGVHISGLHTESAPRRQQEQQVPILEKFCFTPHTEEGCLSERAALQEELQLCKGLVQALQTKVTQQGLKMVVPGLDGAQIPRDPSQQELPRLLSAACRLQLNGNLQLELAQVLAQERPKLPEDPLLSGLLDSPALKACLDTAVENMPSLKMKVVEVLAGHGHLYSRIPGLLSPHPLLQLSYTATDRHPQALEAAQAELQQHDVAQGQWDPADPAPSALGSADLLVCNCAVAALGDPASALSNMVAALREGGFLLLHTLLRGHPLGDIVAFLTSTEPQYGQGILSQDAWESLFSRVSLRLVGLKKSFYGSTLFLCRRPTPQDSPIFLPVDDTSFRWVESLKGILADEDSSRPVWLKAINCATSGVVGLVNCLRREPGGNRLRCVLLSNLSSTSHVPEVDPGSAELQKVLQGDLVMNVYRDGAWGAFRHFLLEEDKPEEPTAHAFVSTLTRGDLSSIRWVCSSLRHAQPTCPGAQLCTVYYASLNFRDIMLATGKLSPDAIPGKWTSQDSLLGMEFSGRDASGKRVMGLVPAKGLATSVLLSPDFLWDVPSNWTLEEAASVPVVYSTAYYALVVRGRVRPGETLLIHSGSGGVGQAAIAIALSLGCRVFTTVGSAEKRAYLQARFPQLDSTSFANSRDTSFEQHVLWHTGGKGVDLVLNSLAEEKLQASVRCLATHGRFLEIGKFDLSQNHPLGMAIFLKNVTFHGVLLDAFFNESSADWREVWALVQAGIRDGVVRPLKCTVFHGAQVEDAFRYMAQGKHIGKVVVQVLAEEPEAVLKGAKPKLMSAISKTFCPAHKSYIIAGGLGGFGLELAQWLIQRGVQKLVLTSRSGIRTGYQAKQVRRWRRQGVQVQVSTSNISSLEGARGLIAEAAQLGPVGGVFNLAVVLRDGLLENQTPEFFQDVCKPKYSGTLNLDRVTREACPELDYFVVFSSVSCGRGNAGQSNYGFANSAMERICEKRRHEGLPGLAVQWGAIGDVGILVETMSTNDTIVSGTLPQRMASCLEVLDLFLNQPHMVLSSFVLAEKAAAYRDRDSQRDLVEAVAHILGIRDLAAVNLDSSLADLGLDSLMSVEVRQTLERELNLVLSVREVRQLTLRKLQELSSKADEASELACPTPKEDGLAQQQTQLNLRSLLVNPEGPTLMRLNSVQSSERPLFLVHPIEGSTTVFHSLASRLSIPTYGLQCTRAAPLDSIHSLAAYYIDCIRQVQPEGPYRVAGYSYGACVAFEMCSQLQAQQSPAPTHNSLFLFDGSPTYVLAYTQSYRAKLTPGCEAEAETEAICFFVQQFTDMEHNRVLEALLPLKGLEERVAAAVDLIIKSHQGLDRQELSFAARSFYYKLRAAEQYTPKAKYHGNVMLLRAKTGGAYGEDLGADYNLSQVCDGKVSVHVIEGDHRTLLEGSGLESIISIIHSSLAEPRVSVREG
Chain of Cytochrome P450 2C9 (P11712 whole entry): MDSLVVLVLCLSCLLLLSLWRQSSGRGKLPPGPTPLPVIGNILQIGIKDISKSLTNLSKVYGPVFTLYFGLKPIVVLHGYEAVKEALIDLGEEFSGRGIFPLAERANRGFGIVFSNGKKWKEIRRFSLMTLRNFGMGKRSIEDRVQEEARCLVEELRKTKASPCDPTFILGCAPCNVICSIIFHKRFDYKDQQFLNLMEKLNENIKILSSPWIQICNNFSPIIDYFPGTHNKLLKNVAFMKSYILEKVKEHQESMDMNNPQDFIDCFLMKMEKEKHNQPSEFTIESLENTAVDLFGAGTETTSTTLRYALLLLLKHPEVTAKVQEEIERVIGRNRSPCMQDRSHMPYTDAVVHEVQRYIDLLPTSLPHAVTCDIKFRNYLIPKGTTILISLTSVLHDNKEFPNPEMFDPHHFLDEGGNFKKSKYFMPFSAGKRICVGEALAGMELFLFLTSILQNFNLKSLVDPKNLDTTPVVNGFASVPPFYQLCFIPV

## O=C(CCC(=O)CCN1CCCCC1)CCN1CCCCC1
[1]
  EC50: 33.1 µM (active)
[2]
  EC50: 32.6 µM (active)

## Cc1cccn2c(=O)c3cc(C(=O)NC4CCCCC4)c(=N)n(Cc4ccccc4)c3nc12
[3]
  EC50: 1.63 µM (active)
[4]
  EC50: 8.47 µM (active)
[5]
  EC50: 25.9 µM (active)
[6]
  EC50: > 60 µM (not active)

## COc1ccc(S(=O)(=O)C(C#N)c2nc3ccccc3nc2N2CCC(C)CC2)cc1 (stereo not drawn)
[4]
  EC50: 8.74 µM (active)
[5]
  EC50: 6.4 µM (active)

## O=C(c1c[nH]c(C(=O)C(Cl)(Cl)Cl)c1)c1ccccc1Cl
[1]
  EC50: 26.5 µM (active)
Protein RecA
  EC50: 6.27 µM (active)
[2]
  EC50: 24.9 µM (active)
[7]
  AC50: 7.85 µM (active)

## N#C/C(=C/c1ccc(CNS(=O)(=O)c2ccccc2)o1)C(=O)NCc1ccccc1
[4]
  EC50: > 300 µM (not active)
[5]
  EC50: > 300 µM (not active)

## O=Nc1c(O)c2ccccc2c2ccccc12
[8]
  EC50: 8.1 µM (active)
[9]
  EC50: > 120 µM (not active)
Streptococcus
  EC50: 10.8 µM (active)
INS1
  AC50: 7.86 µM (active)
Protein RecA
  EC50: 5.3 µM (active)
[10]
  EC50: > 120 µM (not active)
[11]
  EC50: 1.68 µM (active)
Streptokinase A
  EC50: 7.11 µM (active)
[12]
  AC50: 1.03 µM (active)
[7]
  AC50: 4.39 µM (active)

## CC(C)(C)c1cc(NCc2ccccn2)n2ncc(-c3ccccc3)c2n1
Streptococcus
  EC50: 13.8 µM (active)
[13]
  AC50: 6.82 µM (active)
[11]
  EC50: 0.722 µM (active)
Streptokinase A
  EC50: 30 µM (active)
[12]
  AC50: 1.63 µM (active)

## COc1cccc(-c2nc(Oc3cc(C)cc(C)c3)c3ccccc3n2)c1O
[1]
  EC50: 8.12 µM (active)
[2]
  EC50: 13.7 µM (active)

## O=C1C=CC(=O)C2C1C1(Cl)C(Cl)=C(Cl)C2(Cl)C1(Cl)Cl (stereo not drawn)
[12]
  AC50: 7.83 µM (active)
Fatty acid synthase [14]
  IC50: 13.8 µM (active)
Fatty acid synthase [15]
  IC50: 14.8 µM (active)

## COc1ccc(/N=C/c2cc3c(cc2O)OC(N)=C(C#N)C3c2ccccc2)cc1 (stereo not drawn)
[16]
  CC50: 8.02 µM (active)
[4]
  EC50: > 300 µM (not active)
[5]
  EC50: > 300 µM (not active)

## COc1cc(/C=N/O)cc(Br)c1OCc1cccc(Cl)c1
[13]
  AC50: 5.56 µM (active)
[12]
  AC50: 7.99 µM (active)
Cytochrome P450 2C9
  AC50: inconclusive

## COc1ccc2c3c([nH]c2c1)[C@@H](CO)N(Cc1nccs1)CC31CCN(Cc2nccs2)CC1
[17]
  AC50: 4.94 µM (active)

## C[C@H](CO)N1C[C@H](C)[C@H](CN(C)S(=O)(=O)c2cccs2)Oc2ccc(NC(=O)Cc3cn(C)c4ccccc34)cc2C1=O
[17]
  AC50: 5.02 µM (active)

## C/C=C/c1ccc2n(c1=O)C[C@@H]1[C@@H](CO)[C@H](C(=O)N3CCC(Cc4ccccc4)CC3)N(CCC)[C@H]21.C/C=C\c1ccc2n(c1=O)C[C@@H]1[C@@H](CO)[C@H](C(=O)N3CCC(Cc4ccccc4)CC3)N(CCC)[C@H]21
[17]
  AC50: 4.32 µM (active)
